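Assay format: 96-well plates, 48-hour exposure. At the GI50, growth is halved.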 Activity calls are given as the source filed them. Cut-off read from the data, not from the text of the source: active = GI50 up to about 1.1 µM and inactive = higher.
Legend:
Assay in all cases: NCI anticancer screen, dose series, 48 h
SK-MEL-28 = system: SK-MEL-28
SK-MEL-2 = system: SK-MEL-2
A549 = system: A549
OVCAR-5 = system: OVCAR-5
HOP-62 = system: HOP-62
KM12 = system: KM12
SK-MEL-5 = system: SK-MEL-5
UO-31 = system: UO-31
SNB-19 = system: SNB-19
NCI-H460 = system: NCI-H460
LOX IMVI = system: LOX IMVI
HCT-15 = system: HCT-15
RPMI-8226 = system: RPMI-8226
UACC-257 = system: UACC-257
EKVX = system: EKVX
HCT-116 = system: HCT-116
CAKI-1 = system: CAKI-1
SK-OV-3 = system: SK-OV-3
COLO 205 = system: COLO 205
MOLT-4 = system: MOLT-4

Measured: GI50

CN1CCC2(CC1)C(=O)N(N1CCCCCC1)C(=O)N2c1ccccc1
> 100 µM: HCT-15
inactive: SK-MEL-28 > 100 µM | SK-MEL-2 > 100 µM | A549 > 100 µM | OVCAR-5 > 100 µM | HOP-62 > 100 µM | KM12 > 100 µM | SK-MEL-5 > 100 µM | UO-31 > 100 µM | SNB-19 > 100 µM | NCI-H460 > 100 µM | LOX IMVI > 100 µM | RPMI-8226 > 100 µM | UACC-257 > 100 µM | EKVX > 100 µM | HCT-116 18.2 µM | CAKI-1 > 100 µM | SK-OV-3 > 100 µM | COLO 205 > 100 µM | MOLT-4 > 100 µM

C[C@@H]1CC[C@@]2(OC1)O[C@H]1[C@@H](O)[C@H]3[C@@H]4CC[C@H]5C[C@@H](O[C@@H]6O[C@H](CO)[C@H](O[C@@H]7O[C@H](CO)C(O)[C@H](O[C@@H]8OC[C@@H](O)[C@H](O)[C@H]8O)[C@H]7O[C@@H]7O[C@H](CO)[C@H](O)[C@H](O[C@@H]8O[C@H](CO)[C@@H](O)[C@H](O)[C@H]8O)[C@H]7O)[C@H](O)[C@H]6O)[C@H](O)C[C@]5(C)[C@H]4CC[C@]3(C)[C@H]1[C@@H]2C (stereo partly specified) [DIGITONIN]
4.03 µM: HCT-15
inactive: SK-MEL-28 2.61 µM | SK-MEL-2 3.37 µM | A549 2.17 µM | OVCAR-5 2.07 µM | HOP-62 2.37 µM | KM12 2.12 µM | SK-MEL-5 4.5 µM | UO-31 1.94 µM | SNB-19 2.07 µM | NCI-H460 1.94 µM | LOX IMVI 3.42 µM | RPMI-8226 3.15 µM | UACC-257 8.38 µM | EKVX 3.13 µM | HCT-116 1.95 µM | CAKI-1 1.39 µM | SK-OV-3 2.36 µM | COLO 205 1.68 µM | MOLT-4 3.9 µM

O=C(O)CCC(=O)N1c2ccccc2CC1c1c[nH]c2ccccc12 (stereo unspecified)
> 100 µM: HCT-15
inactive: SK-MEL-28 > 100 µM | SK-MEL-2 > 100 µM | A549 > 100 µM | OVCAR-5 > 100 µM | HOP-62 > 100 µM | KM12 65.6 µM | SK-MEL-5 > 100 µM | UO-31 33.2 µM | SNB-19 > 100 µM | NCI-H460 > 100 µM | LOX IMVI > 100 µM | RPMI-8226 > 100 µM | UACC-257 > 100 µM | EKVX > 100 µM | HCT-116 > 100 µM | CAKI-1 > 100 µM | SK-OV-3 > 100 µM | COLO 205 > 100 µM | MOLT-4 > 100 µM

O=c1c(C(c2ccc3ccccc3c2)c2c(O)oc3cc(O)ccc3c2=O)c(O)oc2cc(O)ccc12
inactive: SK-MEL-28 > 100 µM | SK-MEL-2 > 100 µM | A549 > 100 µM | OVCAR-5 > 100 µM | HOP-62 > 100 µM | KM12 30.6 µM | SK-MEL-5 > 100 µM | UO-31 5.22 µM | SNB-19 11.2 µM | NCI-H460 41.3 µM | LOX IMVI 32.7 µM | RPMI-8226 27.5 µM | UACC-257 > 100 µM | EKVX > 100 µM | HCT-116 > 100 µM | CAKI-1 > 100 µM | SK-OV-3 > 100 µM | COLO 205 > 100 µM | MOLT-4 44.4 µM
> 100 µM: HCT-15

COC(=O)c1cc(CNCCc2c[nH]c3ccccc23)on1
> 100 µM: HCT-15
inactive: SK-MEL-28 > 100 µM | SK-MEL-2 > 100 µM | A549 > 100 µM | OVCAR-5 > 100 µM | HOP-62 > 100 µM | KM12 > 100 µM | SK-MEL-5 > 100 µM | UO-31 > 100 µM | SNB-19 > 100 µM | NCI-H460 > 58.1 µM | LOX IMVI > 100 µM | RPMI-8226 > 100 µM | UACC-257 > 100 µM | EKVX > 100 µM | HCT-116 > 100 µM | CAKI-1 > 78.2 µM | SK-OV-3 > 100 µM | COLO 205 > 100 µM | MOLT-4 > 100 µM

Clc1ccc(-c2nn3c(COc4ccc(OCc5nnc6sc(-c7ccc(Cl)cc7)nn56)c(Cl)c4)nnc3s2)cc1
inactive: SK-MEL-28 31.3 µM | SK-MEL-2 53.3 µM | A549 24.4 µM | OVCAR-5 24.2 µM | HOP-62 23.2 µM | KM12 29.4 µM | SK-MEL-5 20.9 µM | UO-31 17.3 µM | SNB-19 14.6 µM | NCI-H460 52 µM | LOX IMVI 17.9 µM | RPMI-8226 24.5 µM | UACC-257 44.7 µM | EKVX 27 µM | HCT-116 24.8 µM | CAKI-1 21.6 µM | SK-OV-3 27.3 µM | COLO 205 57.8 µM | MOLT-4 20.5 µM
28 µM: HCT-15

c1ccc(CN[C@]23C4C5CC6C7C5C2C7[C@@](NCc2ccccc2)(C64)N3Cc2ccccc2)cc1 (stereo partly specified)
inactive: SK-MEL-28 > 100 µM | SK-MEL-2 > 100 µM | A549 > 100 µM | OVCAR-5 > 100 µM | HOP-62 > 100 µM | KM12 > 100 µM | SK-MEL-5 > 100 µM | UO-31 > 100 µM | SNB-19 > 100 µM | NCI-H460 > 100 µM | LOX IMVI > 100 µM | RPMI-8226 > 100 µM | UACC-257 > 100 µM | EKVX > 100 µM | HCT-116 > 100 µM | CAKI-1 > 100 µM | SK-OV-3 > 100 µM | COLO 205 > 100 µM | MOLT-4 > 100 µM
> 100 µM: HCT-15

Cc1c2ccccc2nc2[nH]c3ccncc3c12
26.5 µM: HCT-15
inactive: SK-MEL-28 70.6 µM | SK-MEL-2 40.7 µM | A549 30.7 µM | OVCAR-5 35.3 µM | HOP-62 25.6 µM | KM12 26.6 µM | SK-MEL-5 29.4 µM | UO-31 25.9 µM | SNB-19 36.1 µM | NCI-H460 15.4 µM | LOX IMVI 20.6 µM | RPMI-8226 21 µM | UACC-257 52.1 µM | EKVX 13.9 µM | CAKI-1 25.2 µM | SK-OV-3 50 µM | COLO 205 40.4 µM | MOLT-4 > 100 µM

CNC(C)C(O)c1ccc2oc3cc(=O)c4ccccc4c-3nc2c1 (stereo unspecified)
4.83 µM: HCT-15
inactive: SK-MEL-28 11.5 µM | SK-MEL-2 4.69 µM | A549 5.13 µM | OVCAR-5 32.5 µM | HOP-62 5.82 µM | KM12 9.84 µM | SK-MEL-5 2.48 µM | UO-31 13.8 µM | SNB-19 6.44 µM | NCI-H460 4.67 µM | LOX IMVI 4.1 µM | RPMI-8226 18.9 µM | UACC-257 5.37 µM | EKVX 40 µM | HCT-116 5.24 µM | CAKI-1 16.1 µM | SK-OV-3 40.1 µM | COLO 205 35.9 µM | MOLT-4 19.4 µM

Cc1nc(O)nc2nc3ccc(Cl)cc3c(NC(C)(CO)CO)c12
inactive: SK-MEL-28 > 100 µM | SK-MEL-2 > 100 µM | A549 > 34.4 µM | OVCAR-5 > 100 µM | HOP-62 21.2 µM | KM12 > 100 µM | SK-MEL-5 > 60 µM | UO-31 4.49 µM | SNB-19 45.2 µM | NCI-H460 > 71.1 µM | LOX IMVI 55.6 µM | RPMI-8226 30.8 µM | UACC-257 > 75.3 µM | EKVX 24.9 µM | HCT-116 26.7 µM | CAKI-1 13.9 µM | SK-OV-3 36.9 µM | COLO 205 > 100 µM | MOLT-4 > 40.8 µM
88.3 µM: HCT-15

O=c1c(-c2ccccc2)c(SCCCN2CCN(c3cccc(Cl)c3)CC2)n(-c2ccccc2)c(=S)n1-c1ccccc1
> 100 µM: HCT-15
inactive: SK-MEL-28 > 100 µM | SK-MEL-2 > 100 µM | OVCAR-5 > 100 µM | HOP-62 > 100 µM | KM12 46.5 µM | SK-MEL-5 > 100 µM | NCI-H460 > 100 µM | LOX IMVI > 100 µM | RPMI-8226 > 100 µM | UACC-257 > 100 µM | EKVX > 100 µM | CAKI-1 25.6 µM | SK-OV-3 > 100 µM | COLO 205 > 100 µM | MOLT-4 > 100 µM

Cn1c2c([N+](=O)[O-])[se]nc2c(=O)n1-c1ccc([N+](=O)[O-])cc1
1.25 µM: HCT-15
inactive: SK-MEL-28 2.11 µM | SK-MEL-2 3.34 µM | A549 7.24 µM | OVCAR-5 2.12 µM | HOP-62 3.97 µM | KM12 4.51 µM | SK-MEL-5 4.43 µM | UO-31 1.91 µM | SNB-19 6.01 µM | NCI-H460 2.31 µM | LOX IMVI 2.61 µM | RPMI-8226 1.82 µM | UACC-257 1.96 µM | EKVX 2.38 µM | CAKI-1 1.94 µM | SK-OV-3 2.72 µM | COLO 205 1.67 µM
active: HCT-116 0.887 µM

COC(=O)CCc1ccc(CCC(=O)OC)cc1
inactive: SK-MEL-28 > 100 µM | SK-MEL-2 > 100 µM | A549 > 100 µM | OVCAR-5 > 100 µM | HOP-62 > 100 µM | SK-MEL-5 > 100 µM | UO-31 > 100 µM | SNB-19 > 100 µM | NCI-H460 > 100 µM | LOX IMVI > 100 µM | RPMI-8226 > 100 µM | UACC-257 > 100 µM | EKVX > 100 µM | HCT-116 > 100 µM | CAKI-1 > 100 µM | SK-OV-3 > 100 µM | MOLT-4 > 100 µM
> 100 µM: HCT-15

Cc1cc(C)c(/C=C(\C(=C/c2c(C)cc(C)cc2C)[N+](=O)[O-])[N+](=O)[O-])c(C)c1
inactive: SK-MEL-28 > 100 µM | SK-MEL-2 > 100 µM | A549 > 100 µM | OVCAR-5 > 100 µM | HOP-62 > 100 µM | KM12 > 100 µM | SK-MEL-5 86.5 µM | UO-31 > 100 µM | SNB-19 > 100 µM | NCI-H460 46.7 µM | LOX IMVI 43.4 µM | RPMI-8226 1.31 µM | UACC-257 > 100 µM | EKVX > 100 µM | HCT-116 > 100 µM | CAKI-1 > 100 µM | SK-OV-3 > 100 µM | COLO 205 > 100 µM | MOLT-4 32.7 µM

Reference: ChEMBL document CHEMBL1201862, “PubChem BioAssay data set” (2004)
